Experimental findings from US20220033363A1, “HERBICIDALLY ACTIVE SUBSTITUTED PHENYLPYRIMIDINE HYDRAZIDES” (Bayer Aktiengesellschaft, priority 2018, published 2022) are described below.

SMILES strings stand for the structures.

Format in all cases: in vivo
Test [1] concerns Stellaria media. Briefly: Herbicidal pre-emergence action (Method B) against STEME. The settings on record: 504 h; for pest or weed control at 320 g/ha: dosage 320 g/ha; for pest or weed control at 1280 g/ha: dosage 1280 g/ha. An excerpt: (§1) Method B: Herbicidal Pre-Emergence Action Seeds of mono- and dicotyledonous weed plants are placed in plastic pots in sandy loam soil (doubly sown with one species each of mono- or dicotyledonous weed plants per pot) and covered with soil. The compounds of the invention, formulated in the form of wettable powders (WP) or as emulsion concentrates (EC), are then applied onto the surface of the covering soil as aqueous suspension or emulsion with addition of 0.5% additive at a water application rate equivalent to 600 liters per hectare. After the treatment, the pots are placed in a greenhouse and kept under good growth conditions for the trial plants. After about 3 weeks, the effect of the preparations is scored visually in comparison with untreated controls as percentages. For example, 100% action=the plants have died, 0% action=like control plants.

Test [2] has as its system Echinochloa crus-galli. The test is described as follows: Herbicidal post-emergence action (Method A) against ECHCG. The following applies: rated visually after about 3 weeks vs untreated controls; for pest or weed control at 1280 g/ha: Echinochloa crus-galli, post-emergence, 504 h. As for the experimental part:
(§2) Method A: Herbicidal Post-Emergence Action Seeds of mono- and dicotyledonous weed plants are placed in plastic pots in sandy loam soil (twin sowing with one species each of mono- or dicotyledonous weed plants per pot), covered with soil and cultivated in a greenhouse under controlled growth conditions. 2 to 3 weeks after sowing, the test plants are treated at the one-leaf stage. The compounds of the invention, formulated in the form of wettable powders (WP) or as emulsion concentrates (EC), are applied to the green parts of the plants as aqueous suspension or emulsion with addition of 0.5% additive at a water application rate equivalent to 600 liters per hectare. After the test plants have been kept in the greenhouse under optimum growth conditions for about 3 weeks, the activity of the preparations is rated visually in comparison to untreated controls. For example, 100% activity=the plants have died, 0% activity=like control plants.

Test [3] concerns Echinochloa crus-galli. The test is described as follows: Herbicidal pre-emergence action (Method B) against ECHCG. The settings on record: 504 h, scored visually after about 3 weeks vs untreated controls.
Source text: as §1

The test system of test [4] is Poa annua. The test is described as follows: Herbicidal post-emergence action (Method A) against POAAN. The settings on record: 504 h, rated visually after about 3 weeks vs untreated controls; for pest or weed control at 320 g/ha: read-out: Post-emergence action at 320 g/ha against POANN; for pest or weed control at 1280 g/ha: read-out: Post-emergence action at 1280 g/ha against POANN. The protocol:
as §2

The test system of test [5] is Lolium rigidum. The test is described as follows: Herbicidal pre-emergence action (Method B) against LOLRI. The following applies: 504 h, scored visually after about 3 weeks vs untreated controls.
Source text: as §1

Test [6] deals with Stellaria media. The test is described as follows: Herbicidal post-emergence action (Method A) against STEME. The settings on record: 504 h, rated visually after about 3 weeks vs untreated controls. The protocol: as §2
Test [7] concerns Matricaria inodora. Briefly: Herbicidal pre-emergence action (Method B) against MATIN. The following applies: Tripleurospermum inodorum, 504 h, scored visually after about 3 weeks vs untreated controls.
Source text: as §1

The test system of test [8] is Poa annua. The test is described as follows: Herbicidal pre-emergence action (Method B) against POAAN. The following applies: 504 h, scored visually after about 3 weeks vs untreated controls.
Source text: as §1

Test [9] deals with harmful plants. The test is described as follows: Herbicidal post-emergence action (Method A), summary statement. The following applies: summary of tables A1-A11. As for the experimental part:
as §2

Test [10] concerns Amaranthus retroflexus. Briefly: Herbicidal post-emergence action (Method A) against AMARE. The following applies: rated visually after about 3 weeks vs untreated controls. The protocol: as §2
Test [11] has as its system Lolium rigidum. The test is described as follows: Herbicidal post-emergence action (Method A) against LOLRI. The following applies: rated visually after about 3 weeks vs untreated controls; for pest or weed control at 1280 g/ha: Lolium rigidum, post-emergence, 504 h. As for the experimental part:
as §2

The subject of test [12] is Matricaria inodora. Briefly: Herbicidal post-emergence action (Method A) against MATIN. The settings on record: rated visually after about 3 weeks vs untreated controls. As for the experimental part: as §2

As to `CCOC(=O)NNC(=O)c1nc(C2CC2)ncc1-c1ccc(F)cc1Cl` [Example I-2591, ethyl 2-{[5-(2-chloro-4-fluorophenyl)-2-cyclopropylpyrimidin-4-yl]carbonyl}hydrazinecarboxylate], the pest or weed control at 320 g/ha in test [1], in test [4] and in test [8] was 100% each time. Besides, the pest or weed control at 1280 g/ha stood at 100% in [1]; 90% in test [2]; 100% in [3]; 100% in [4]; 100% in test [5]; 100% in test [6]. Further, the pest or weed control at 1280 g/ha in [7] is 90%; in test [8], 100%.
On to `CN(N)C(=O)c1nc(C2CC2)ncc1-c1ccccc1Cl` [Example I-500, 5-(2-chlorophenyl)-2-cyclopropyl-N-methylpyrimidine-4-carbohydrazide], for which the “herbicidal efficacy against harmful plants in the case of post-emergence treatment” value in test [9] is reported as “good herbicidal efficacy”. In addition, the pest or weed control at 320 g/ha in [1] was 100%; in test [3] it was 90%; in [4] it was 100%; in test [5] it was 90%; in test [6], 100%; in [8] it was 100%. Also, the pest or weed control at 1280 g/ha in test [1], in test [3], in test [4], in test [5], in test [6] and in test [7] was 100% throughout. Moreover, the pest or weed control at 1280 g/ha in test [8] was found to be 100%; in test [11], 90%. The “Post-emergence action at 1280 g/ha against AMARE” value in test [10] is 100%. For the same compound, the “Post-emergence action at 320 g/ha against MATIN” value in [12] (320 g/ha) amounted to 90%. In addition, the “Post-emergence action at 1280 g/ha against MATIN” value in [12] was found to be 90%.
For `O=C(NN=C1CCOCC1)c1nc(C2CC2)ncc1-c1ccccc1Cl` [Example I-559, 5-(2-chlorophenyl)-2-cyclopropyl-N′-(tetrahydro-4H-pyran-4-ylidene)pyrimidine-4-carbohydrazide], the “herbicidal efficacy against harmful plants in the case of post-emergence treatment” value in test [9] is listed as “good herbicidal efficacy”. For the same compound, the pest or weed control at 320 g/ha in test [1] was 100%; in test [3], 90%; in [4] it was 100%; in [5], 100%; in test [6], 90%; in test [7] it was 100%. The compound further had a pest or weed control at 320 g/ha in [8] of 100%. Besides, the pest or weed control at 1280 g/ha was found to be 100% in [1]; 90% in test [2]; 100% in test [3]; 100% in test [4]; 100% in [5]; 100% in test [6]. In addition, the pest or weed control at 1280 g/ha in [7], in [8] and in test [11] was 100% each time. Moreover, in [2], the “Post-emergence action at 320 g/ha against ECHCG” value was found to be 90%. In addition, in test [11], the “Post-emergence action at 320 g/ha against LOLRI” value was found to be 90%.
As for `CC(=O)N(NC(=O)c1nc(C2CC2)ncc1-c1ccccc1Cl)c1ccccn1` [Example I-513, N′-acetyl-5-(2-chlorophenyl)-2-cyclopropyl-N′-(pyridin-2-yl)pyrimidine-4-carbohydrazide], the pest or weed control at 320 g/ha in [1], in test [4], in test [6] and in [8] was 100% in each case. Further, the pest or weed control at 1280 g/ha in test [1] amounted to 100%; in test [2], 100%; in test [3], 100%; in test [4] it was 100%; in [5] it was 90%; in test [6], 100%. Also, the pest or weed control at 1280 g/ha in test [7], in test [8] and in [11] was 100% in each case. Further, in test [2], the “Post-emergence action at 320 g/ha against ECHCG” value is given as 100%. Further, the “Post-emergence action at 1280 g/ha against MATIN” value in test [12] was found to be 90%.
In the case of `CN(C)NC(=O)c1nc(C2CC2)ncc1-c1ccccc1Cl` [Example I-501, 5-(2-chlorophenyl)-2-cyclopropyl-N′,N′-dimethylpyrimidine-4-carbohydrazide], the pest or weed control at 320 g/ha in [1], in [3], in test [4], in test [5], in test [6] and in test [7] was 100% in each case. In addition, the pest or weed control at 320 g/ha in [8] stood at 100%. Also, the pest or weed control at 1280 g/ha in test [1], in [2], in [3], in [4], in test [5] and in [6] was 100% in each case. Further, the pest or weed control at 1280 g/ha in test [7], in test [8] and in test [11] was 100% each time. In test [2], the “Post-emergence action at 320 g/ha against ECHCG” value is 100%. For the same compound, the “Post-emergence action at 1280 g/ha against AMARE” value in test [10] is given as 100%. Also, in [11], the “Post-emergence action at 320 g/ha against LOLRI” value turned out to be 100%. For the same compound, the “Post-emergence action at 1280 g/ha against MATIN” value in [12] is recorded as 90%.
Regarding `CN(NC(=O)c1nc(C2CC2)ncc1-c1ccccc1Cl)C(=O)OC(C)(C)C` [Example I-548, tert-butyl 2-{[5-(2-chlorophenyl)-2-cyclopropylpyrimidin-4-yl]carbonyl}-1-methylhydrazinecarboxylate], the pest or weed control at 320 g/ha in test [1] turned out to be 100%; in test [3], 90%; in [8] it was 100%. The pest or weed control at 1280 g/ha is 100% in test [1]; 90% in test [2]; 100% in test [3]; 90% in test [4]; 90% in test [5]; 100% in [8].
